Measured values from patent publication US8618162B2 (priority 2007, dated 2013).
Read-outs that look alike come from different tables or passages of the source.

Columns and labels:
Ag hmg AChE = biological target: T1, Ag hmg AChE (Anopheles gambiae, UniProt Q869C3); test: Ellman AChE inhibition assay, Anopheles gambiae homogenate (Ag hmg); assay type: biochemical; conditions: for IC50: pH 7.8, 10 min preincubation; for IC50 ratio (hAChE/Ag hmg): selectivity, values in parenthesis; for Human/Ag IC50 ratio (selectivity for AgAChE over hAChE): range over the two AgAChE sources (Ag hmg, Ag ace-1S)
T1 construct: To prepare the Ag homogenate (Ag hmg) 10 Anopheles gambiae mosquitoes were combined; from tissue; host or cells: whole Anopheles gambiae mosquitoes, crude homogenate supernatant
T1 sequence (Q869C3 39-737): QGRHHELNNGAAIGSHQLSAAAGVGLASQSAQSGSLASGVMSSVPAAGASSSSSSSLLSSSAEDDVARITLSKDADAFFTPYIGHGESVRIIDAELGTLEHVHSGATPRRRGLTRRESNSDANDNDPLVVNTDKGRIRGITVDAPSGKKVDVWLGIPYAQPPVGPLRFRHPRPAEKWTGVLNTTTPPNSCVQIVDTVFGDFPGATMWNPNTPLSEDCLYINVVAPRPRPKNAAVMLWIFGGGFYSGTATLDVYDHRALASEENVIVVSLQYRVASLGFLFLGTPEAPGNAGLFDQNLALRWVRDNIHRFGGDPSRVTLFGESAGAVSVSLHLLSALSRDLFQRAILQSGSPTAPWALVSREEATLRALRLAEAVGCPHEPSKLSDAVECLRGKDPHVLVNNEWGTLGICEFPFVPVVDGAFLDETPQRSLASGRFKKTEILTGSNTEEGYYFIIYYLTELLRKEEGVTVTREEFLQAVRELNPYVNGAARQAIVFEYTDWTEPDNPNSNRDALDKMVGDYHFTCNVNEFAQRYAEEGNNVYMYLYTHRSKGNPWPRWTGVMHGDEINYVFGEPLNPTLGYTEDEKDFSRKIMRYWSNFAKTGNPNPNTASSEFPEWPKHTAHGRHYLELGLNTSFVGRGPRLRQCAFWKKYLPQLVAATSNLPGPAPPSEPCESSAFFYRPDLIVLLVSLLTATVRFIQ

Anopheles gambiae = test: Live mosquito contact toxicity, WHO filter paper assay; assay type: in vivo; conditions: for Live Mosquito Contact Toxicity MC for 100% lethality at 24 hr: 1 hr exposure to treated filter paper
hAChE = biological target: T2, hAChE (Homo sapiens, UniProt P22303); test: Ellman AChE inhibition assay, recombinant hAChE; assay type: biochemical
T2 construct: purchased Sigma C1682
T2 sequence (P22303 32-614): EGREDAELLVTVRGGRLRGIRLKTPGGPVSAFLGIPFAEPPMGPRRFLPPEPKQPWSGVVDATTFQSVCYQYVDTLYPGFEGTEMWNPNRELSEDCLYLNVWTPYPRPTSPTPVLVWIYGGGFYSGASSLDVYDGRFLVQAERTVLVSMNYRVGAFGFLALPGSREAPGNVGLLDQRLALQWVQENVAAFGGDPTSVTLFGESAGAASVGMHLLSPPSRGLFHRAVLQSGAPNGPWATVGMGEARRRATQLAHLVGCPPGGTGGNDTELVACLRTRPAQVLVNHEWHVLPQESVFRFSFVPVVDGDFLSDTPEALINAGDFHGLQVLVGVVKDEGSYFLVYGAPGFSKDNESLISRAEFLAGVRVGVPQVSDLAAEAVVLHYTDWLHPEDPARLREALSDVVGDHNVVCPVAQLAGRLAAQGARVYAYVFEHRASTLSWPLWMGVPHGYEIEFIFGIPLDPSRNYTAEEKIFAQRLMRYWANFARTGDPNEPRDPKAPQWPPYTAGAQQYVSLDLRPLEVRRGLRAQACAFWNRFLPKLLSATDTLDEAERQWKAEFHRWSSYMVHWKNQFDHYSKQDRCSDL

Ag ace-1S [1] = test: biochemical; parameters: species or system Anopheles gambiae; conditions: selectivity, values in parenthesis
Ag ace-1S [2] = biological target: T3, Ag ace-1S (Anopheles gambiae, UniProt Q869C3); test: biochemical
T3 construct: encoding the entire wild type AgAChE protein (ace1, 737 amino acids); made in house; host or cells: Drosophila S2 cells (stably transfected, pMT/V5-His vector), clarified cell lysate
T3 sequence (Q869C3 39-737): as the sequence (Q869C3 39-737) above

[3] = WT Anopheles gambiae homogenate, read-out: Ag WT hmg IC50
[4] = pH 7.8, 10 min preincubation, read-out: hAChE recomb. IC50
[5] = recombinant Anopheles gambiae AChE, WT (susceptible) strain, read-out: Ag ace-1S IC50
[6] = Ag WT hmg IC50, WT Anopheles gambiae homogenate

Compound	Live Mosquito Contact Toxicity MC for 100% lethality at 24 hr (Anopheles gambiae) [ug/cm^2]	IC50 (Ag ace-1S [2]) [µM]	IC50 (Ag hmg AChE; [6]) [µM]	lethality at 24 h (Anopheles gambiae; at 11 ug/cm^2, 1 hr exposure)	IC50 (hAChE) [µM]	further results
2-isopropylphenyl-N-methylcarbamate [Compound 22b]	56					IC50 (Ag hmg AChE; [3]): 0.507 µM; IC50 ratio (hAChE/Ag hmg) (Ag hmg AChE): (8.8x); IC50 (hAChE; [4]): 4.54 µM; IC50 ratio (hAChE/Ag ace-1S) (Ag ace-1S [1]): (11x); IC50 (Ag ace-1S [2]; [5]): 0.426 µM
CNC(=O)Oc1cccc2c1OC(C)(C)O2 [Bendiocarb, reference compound]	0.55	0.142				IC50 (Ag hmg AChE; [3]): 0.065 µM; IC50 ratio (hAChE/Ag hmg) (Ag hmg AChE): (4.1x); IC50 (hAChE; [4]): 0.27 µM; IC50 ratio (hAChE/Ag ace-1S) (Ag ace-1S [1]): (1.9x)
CNC(=O)Oc1cccc2c1OC(C)(C)C2 [Carbofuran, reference compound]		0.049				IC50 (Ag hmg AChE; [3]): 0.022 µM; IC50 (hAChE; [4]): 0.061 µM
CCCCN(CCCC)SN(C)C(=O)Oc1cccc2c1OC(C)(C)C2 [Carbosulfan, reference compound]		10.8				IC50 (Ag hmg AChE; [3]): 4.1 µM; IC50 (hAChE; [4]): 5.92 µM
CCC(CC)CSc1ccccc1OC(=O)NC [Compound 1b, 2-(2-ethylbutylthio)phenyl-N-methylcarbamate]		0.0029	0.003	27% at 11	3.63	Human/Ag IC50 ratio (selectivity for AgAChE over hAChE) (Ag hmg AChE): 1200 fold
CCCCCCNC(=O)Oc1cccc(C(C)(C)C)c1 [Compound 1c]			> 100	13% lethal at 11	0.696	
CC(C)NC(=O)Oc1cccc(C(C)(C)C)c1 [Compound 1d, N-isopropyl-3-tert-butylphenylcarbamate]			538		181	
C#CCNC(=O)Oc1cccc(C(C)(C)C)c1 [Compound 1e, N-propargyl 3-t-butylphenyl carbamate]	56		0.339		0.205	
CC(C)(C)c1cccc(OC(=O)NCc2cn(Cc3ccccc3)nn2)c1 [Compound 1f, N-(1-benzyl-1H-1,2,3-triazol-4-yl)methyl 3-t-butylphenyl carbamate]	56		> 10		> 10	
CN(C)C(=O)Oc1cccc(C(C)(C)C)c1 [Compound 1g]			5.94	20% lethal at 11	4.04	
CCNC(=O)Oc1cccc(C(C)(C)C)c1 [Compound 1h]	11		4		2.41	
CCC(CC)COc1ccccc1OC(=O)NC [Compound 2b, 2-(2-ethylbutoxy)phenyl-N-methylcarbamate]		0.01	0.069	27%	98.8	Human/Ag IC50 ratio (selectivity for AgAChE over hAChE) (Ag hmg AChE): 1,400-9.900 fold; lethality at 24 h, +PBO (Anopheles gambiae; at 11 ug/cm^2, +PBO): 53%
CC[Si](C)(C)c1cccc(OC(=O)NC)c1 [Compound 3a, N-methyl 3-ethyldimethylsilylphenyl carbamate]	11	0.0022	0.0027		0.285	IC50 ratio (hAChE/Ag hmg) (Ag hmg AChE): (110x); IC50 ratio (hAChE/Ag ace-1S) (Ag ace-1S [1]): (130x)
CCC(CC)C[S+]([O-])c1ccccc1OC(=O)NC (stereo not shown) [Compound 3b, 2-(2-ethylbutylsulfinyl)phenyl-N-methylcarbamate]			51.8	0% at 11	55.4	
CCC(C)CSc1ccccc1OC(=O)NC (stereo not shown) [Compound 4b, 2-(2-methylbutylthio)phenyl-N-methylcarbamate]		0.027	0.03	70% at 11	3.54	
CNC(=O)Oc1ccccc1SC(C)C [Compound 5b, 2-(isopropylthio)phenyl-N-methylcarbamate]	2.8		0.033		0.943	
CNC(=O)Oc1cccc(-c2ccccc2)c1 [Compound 6a]	56	12.1	18.4		38.9	IC50 ratio (hAChE/Ag hmg) (Ag hmg AChE): (2.1x); IC50 ratio (hAChE/Ag ace-1S) (Ag ace-1S [1]): (3.2x)
CNC(=O)Oc1ccccc1SCC(C)C [Compound 6b, 2-(isobutylthio)phenyl-N-methylcarbamate]	11		0.109		8.11	Human/Ag IC50 ratio (selectivity for AgAChE over hAChE) (Ag hmg AChE): 74 fold
CNC(=O)Oc1ccccc1SCC(C)(C)C [Compound 7b, 2-(neopentylthio)phenyl-N-methylcarbamate]		0.287	0.732	33% at 11	13.9	
C=C(C)CSc1ccccc1OC(=O)NC [Compound 8b, 2-(2-methylallylthio)phenyl-N-methylcarbamate]	2.8	0.165	0.124		9.55	

Compound	Live Mosquito Contact Toxicity MC for 100% lethality at 24 hr (Anopheles gambiae) [ug/cm^2]	IC50 (Ag ace-1S [2]) [µM]	IC50 (Ag hmg AChE; [6]) [µM]	lethality at 24 h (Anopheles gambiae; at 11 ug/cm^2, 1 hr exposure)	IC50 (hAChE) [µM]	further results
C=C(C)CSc1ccccc1OC(=O)NCC [Compound 8c, 2-(3-thio-2-methylpropenyl)phenyl-N-ethylcarbamate]			13	None at 11	54.2	
C=C(C)CSc1ccccc1OC(=O)NCCCCCC [Compound 8d, 2-(3-thio-2-methylpropenyl)phenyl-N-hexylcarbamate]			> 100	None at 11	6.86	
C=C(C)CSc1ccccc1OC(=O)N(C)C [Compound 8e, 2-(3-thio-2-methylpropenyl)phenyl-N,N-dimethylcarbamate]			5.82	None at 11	10.3	
CNC(=O)Oc1ccccc1SCC1CCCCC1 [Compound 9b, 2-(cyclohexylmethylthio)phenyl-N-methylcarbamate]			17.5		10.6	
CNC(=O)Oc1ccccc1OCC1CCCCC1 [Compound 10b, 2-(cyclohexylmethoxy)phenyl-N-methylcarbamate]			> 100		> 100	
CNC(=O)Oc1ccccc1SCC1CCCC1 [Compound 11b, 2-(cyclopentylmethylthio)phenyl-N-methylcarbamate]		0.391	1.07		6.88	
CNC(=O)Oc1ccccc1OCC1CCCC1 [Compound 12b, 2-(cyclopentylmethoxy)phenyl-N-methylcarbamate]			24.6		> 100	
CNC(=O)Oc1cccc(-c2cn(Cc3ccccc3)nn2)c1 [Compound 13a, N-methyl 3-(1-benzyl-1H-1,2,3-triazol-4-yl)phenyl carbamate]			336	None at 11	> 100	
CNC(=O)Oc1ccccc1OCC(C)C [Compound 13b, 2-isobutoxyphenyl-N-methylcarbamate]		0.65	2.06		66.9	lethality at 24 h (Anopheles gambiae; at 2.8 ug/cm^2, 1 hr exposure): 100% at 2.8
C=C(Cl)CSc1ccccc1OC(=O)NC [Compound 14b, 2-(2-chloroallylthio)phenyl-N-methylcarbamate]	11	0.264	0.114		3.1	
C=C(Br)CSc1ccccc1OC(=O)NC [Compound 15b, 2-(2-bromoallylthio)phenyl-N-methylcarbamate]		0.173	0.248		1.66	lethality at 24 h (Anopheles gambiae; at 56 ug/cm^2, 1 hr exposure): 93% lethal at 56
C=CCSc1ccccc1OC(=O)NC [Compound 16b, 2-(allylthio)phenyl-N-methylcarbamate]	5.6	0.036	0.156		1.58	
C/C=C/CSc1ccccc1OC(=O)NC [Compound 17b, (E)-2-(but-2-enylthio)phenyl-N-methylcarbamate]		0.068	0.057		0.494	lethality at 24 h (Anopheles gambiae; at 5.6 ug/cm^2, 1 hr exposure): 93% lethal at 5.6
CNC(=O)Oc1ccccc1SCC=C(C)C [Compound 18b, 2-(3-methylbut-2-enylthio)phenyl-N-methylcarbamate]	56	0.411	1.18		2.7	
CNC(=O)Oc1ccccc1SCc1ccccc1 [Compound 19b, 2-(benzylthio)phenyl-N-methylcarbamate]		3.84	6.9		15.7	
C=C(C)COc1ccccc1OC(=O)NC [Compound 20b, 2-(2-methylallyloxy)phenyl-N-methylcarbamate]			1.51	93% lethality at 11	68.7	
C=C(Br)COc1ccccc1OC(=O)NC [Compound 21b, 2-(2-bromoallyloxy)phenyl-N-methylcarbamate]	11	0.741	1.07		31.9	
CNC(=O)Oc1ccccc1C(C)(C)C [Compound 23b, 2-tert-butylphenyl methylcarbamate]	56	51.7	79		> 100	IC50 ratio (hAChE/Ag hmg) (Ag hmg AChE): (>1.3x); IC50 ratio (hAChE/Ag ace-1S) (Ag ace-1S [1]): (1.9x)
N-methyl-3-fluoro-5-trifluoromethylphenylcarbamate [Compound 12a]				None at 11		IC50 (Ag hmg AChE; [3]): > 100 µM; IC50 (hAChE; [4]): > 100 µM; IC50 (Ag ace-1S [2]; [5]): 78.5 µM
